Patent publication US20240116985A1, “STAPLED PEPTIDES AND METHODS THEREOF” (priority 2020, published 2024)

Biological target: T1, full-length beta-Catenin (Uniprot ID P35222) (Homo sapiens, UniProt P35222)
T1 construct: 10 nM full-length beta-Catenin (Uniprot ID P35222)
T1 sequence (P35222 1-781): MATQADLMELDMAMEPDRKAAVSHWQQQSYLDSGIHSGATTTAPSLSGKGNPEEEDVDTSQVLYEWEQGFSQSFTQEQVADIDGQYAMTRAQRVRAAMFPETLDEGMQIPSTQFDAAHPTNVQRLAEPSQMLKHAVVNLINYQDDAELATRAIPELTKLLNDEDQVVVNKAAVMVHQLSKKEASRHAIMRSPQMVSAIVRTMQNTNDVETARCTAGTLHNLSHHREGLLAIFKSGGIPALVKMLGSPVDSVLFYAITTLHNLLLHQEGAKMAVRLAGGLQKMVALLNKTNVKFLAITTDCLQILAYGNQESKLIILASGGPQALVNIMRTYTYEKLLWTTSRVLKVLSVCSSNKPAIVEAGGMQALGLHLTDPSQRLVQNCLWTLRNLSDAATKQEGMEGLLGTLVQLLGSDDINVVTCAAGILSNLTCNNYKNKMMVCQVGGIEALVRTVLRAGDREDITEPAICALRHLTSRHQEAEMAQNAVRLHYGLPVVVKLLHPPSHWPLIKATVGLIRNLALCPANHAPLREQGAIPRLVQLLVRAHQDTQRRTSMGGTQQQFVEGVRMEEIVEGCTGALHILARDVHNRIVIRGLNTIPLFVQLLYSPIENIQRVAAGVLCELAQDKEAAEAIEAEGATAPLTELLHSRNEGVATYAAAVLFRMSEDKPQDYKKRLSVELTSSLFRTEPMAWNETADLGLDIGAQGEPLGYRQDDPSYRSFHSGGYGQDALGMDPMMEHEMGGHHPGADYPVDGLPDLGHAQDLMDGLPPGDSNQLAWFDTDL
Assay: Fluorescence polarization IC50 (beta-catenin / 5FAM-TCF4 10-53 competition)
Type: binding
Details: fluorescence polarization; read-out: beta-Catenin FP IC50

Compound | IC50
CC(=O)N1CCC[C@]12CC=CCCCC1(CCCC=CCCCOC(=O)N3CC[C@@](C(=O)N[C@@H](Cc4ccccc4C(F)(F)F)C(=O)N[C@@H](Cc4csc5ccccc45)C(=O)N[C@@H](CCC(N)=O)C(N)=O)(C3)NC(=O)[C@H](CC(N)=O)NC(=O)[C@H](Cc3ccccc3)NC(=O)[C@H](C)NC(=O)[C@H](C)NC(=O)[C@H]([C@@H](C)O)NC(=O)[C@H](CC(N)=O)NC1=O)NC(=O)[C@H](CC(C)(C)C)NC(=O)[C@H](CC(=O)O)NC2=O (stereo partly drawn) [I-1738, Ac-PL3-Asp-Npg-B5-Asn-Thr-Ala-Ala-Phe-Asn-PyrS2-2F3MeF-BztA-Gln-NH2] | 1060 nM
CC(=O)N1CCC[C@]12CCCCCCC1(CCCCCCCCOC(=O)N3CC[C@@](C(=O)N[C@@H](Cc4ccsc4)C(=O)N[C@@H](Cc4csc5ccccc45)C(=O)N[C@@H](Cc4ccccc4)C(N)=O)(C3)NC(=O)[C@H](CC(C)C)NC(=O)[C@H](Cc3ccccc3)NC(=O)[C@H](C)NC(=O)[C@H](C)NC(=O)[C@H](CN(CC(=O)O)CC(F)(F)F)NC(=O)[C@H](CC(=O)O)NC1=O)NC(=O)[C@H](CC(C)(C)C)NC(=O)[C@H](CC(=O)O)NC2=O (stereo partly drawn) [I-1755, Ac-PL3-Asp-Npg-B5-Asp-TfeGA-Ala-Ala-Phe-Leu-PyrS2-3Thi-BztA-Phe-NH2] | 570 nM
CC(C)C[C@H](NC(=O)[C@]12CCN(C1)C(=O)OCCCC=CCCCC1(CCCC=CCCCC(=O)N3CCC[C@@]3(C)C(=O)N[C@@H](CC(=O)O)C(=O)N1)C(=O)N[C@@H](C)C(=O)N[C@@H](CC(=O)O)C(=O)N[C@@H](Cc1cccc(C(=O)O)c1)C(=O)N[C@@H](C)C(=O)N[C@@H](C)C(=O)N[C@@H](Cc1ccccc1)C(=O)N2)C(=O)N[C@@H](Cc1ccsc1)C(=O)N[C@@H](Cc1csc2ccccc12)C(=O)N[C@@H](CCC(N)=O)C(N)=O (stereo partly drawn) [I-2602, 5hexenyl-MePro-Asp-B5-Ala-Asp-3COOHF-Ala-Ala-Phe-PyrS2-Leu-3Thi-BztA-Gln-NH2] | 8220 nM
CC(=O)N1CCC[C@]12CC=CCCCC1(CCCC=CCCCOC(=O)N3CC[C@](C(=O)N[C@@H](Cc4ccsc4)C(=O)N[C@@H](Cc4csc5ccccc45)C(=O)N[C@@H](CCC(N)=O)C(N)=O)(C3)NC(=O)[C@H](CC(C)C)NC(=O)[C@H](Cc3ccccc3)NC(=O)[C@H](C)NC(=O)[C@H](C)NC(=O)[C@H](CC(=O)O)NC(=O)[C@H](CC(=O)O)NC1=O)NC(=O)[C@H](CC(C)(C)C)NC(=O)[C@H](CC(=O)O)NC2=O (stereo partly drawn) [I-2020, Ac-PL3-Asp-Npg-B5-Asp-Asp-Ala-Ala-Phe-Leu-PyrR2-3Thi-BztA-Gln-NH2] | 1200 nM
CC(=O)N1CCC[C@]12CCCCCCC1(CCCCCCCCOC(=O)N3CC[C@](C(=O)N[C@@H](Cc4ccsc4)C(=O)N[C@@H](Cc4csc5ccccc45)C(=O)N[C@@H](CCC(N)=O)C(N)=O)(C3)NC(=O)[C@H](CC(C)C)NC(=O)[C@H](Cc3ccccc3)NC(=O)[C@H](C)NC(=O)[C@H](C)NC(=O)[C@H](CC(=O)O)NC(=O)[C@H](CC(=O)O)NC1=O)NC(=O)[C@H](CC(C)(C)C)NC(=O)[C@H](CC(=O)O)NC2=O (stereo partly drawn) [I-2022, Ac-PL3-Asp-Npg-B5-Asp-Asp-Ala-Ala-Phe-Leu-PyrR2-3Thi-BztA-Gln-NH2] | 1890 nM
CC(=O)N1CCC[C@]12CC=CCCCC1(CCCC=CCCCOC(=O)N3CC[C@@](C(=O)N[C@@H](Cc4ccsc4)C(=O)N[C@@H](Cc4c[nH]c5cccc(F)c45)C(=O)N[C@@H](CCC(N)=O)C(N)=O)(C3)NC(=O)[C@H](CC(N)=O)NC(=O)[C@H](Cc3ccccc3)NC(=O)[C@H](C)NC(=O)[C@H](C)NC(=O)[C@H](CC(=O)O)NC(=O)[C@H](CC(=O)O)NC1=O)NC(=O)[C@H](CC(C)(C)C)NC(=O)[C@H](CC(=O)O)NC2=O (stereo partly drawn) [I-2178, Ac-PL3-Asp-Npg-B5-Asp-Asp-Ala-Ala-Phe-Asn-PyrS2-3Thi-4FW-Gln-NH2] | 42 nM
CC(=O)N1CCC[C@]12CC=CCCCC1(CCCC=CCCCOC(=O)N3CC[C@@](C(=O)N[C@@H](Cc4ccsc4)C(=O)N[C@@H](Cc4ccc(F)c(F)c4)C(=O)N[C@@H](CO)C(N)=O)(C3)NC(=O)[C@H](CC(C)C)NC(=O)[C@H](Cc3ccccc3)NC(=O)[C@H](C)NC(=O)[C@H](C)NC(=O)[C@H](CC(=O)O)NC(=O)[C@H](CC(=O)O)NC1=O)NC(=O)[C@H](CC(C)(C)C)NC(=O)[C@H](CC(=O)O)NC2=O (stereo partly drawn) [I-1428, Ac-PL3-Asp-Npg-B5-Asp-Asp-Ala-Ala-Phe-Leu-PyrS2-3Thi-34FF-Ser-NH2] | 41 nM
CC(=O)N1CCC[C@]12CC=CCCCC1(CCCC=CCCCOC(=O)N3CC[C@@](C(=O)N[C@@H](Cc4ccsc4)C(=O)N[C@@H](Cc4csc5ccccc45)C(=O)N[C@@H](CCC(N)=O)C(N)=O)(C3)NC(=O)[C@H](CC(C)C)NC(=O)[C@H](Cc3ccccc3)NC(=O)[C@H](CC(=O)N3CCN(C)CC3)NC(=O)[C@H](C)NC(=O)[C@H](CC(=O)O)NC(=O)[C@H](CC(=O)O)NC1=O)NC(=O)[C@H](CC(C)(C)C)NC(=O)[C@H](CC(=O)O)NC2=O (stereo partly drawn) [I-1508, Ac-PL3-Asp-Npg-B5-Asp-Asp-Ala-MePpzAsn-Phe-Leu-PyrS2-3Thi-BztA-Gln-NH2] | 87 nM
CC(=O)N1CCC[C@]12CC=CCCCC1(CCCC=CCOC(=O)N3CC[C@@](C(=O)N[C@@H](Cc4ccsc4)C(=O)N[C@@H](Cc4csc5ccccc45)C(=O)N[C@@H](CCC(N)=O)C(N)=O)(C3)NC(=O)[C@H](CC(N)=O)NC(=O)[C@H](Cc3ccccc3)NC(=O)[C@H](C)NC(=O)[C@H](C)NC(=O)[C@H](CC(=O)O)NC(=O)[C@H](CC(=O)O)NC1=O)NC(=O)[C@H](CC(C)(C)C)NC(=O)[C@H](CC(=O)O)NC2=O (stereo partly drawn) [I-1816, Ac-PL3-Asp-Npg-B5-Asp-Asp-Ala-Ala-Phe-Asn-PyrS-3Thi-BztA-Gln-NH2] | 235 nM
CC(=O)N1CCC[C@]12CC=CCCCCC1(CCCCC=CCCOC(=O)N3CC[C@@](C(=O)N[C@@H](Cc4ccccc4C(F)(F)F)C(=O)N[C@@H](Cc4csc5ccccc45)C(=O)N[C@@H](CCC(N)=O)C(N)=O)(C3)NC(=O)[C@H](CC(C)C)NC(=O)[C@H](Cc3ccccc3)NC(=O)[C@H](C)NC(=O)[C@H](C)NC(=O)[C@H](Cc3cccc(C(=O)O)c3)NC(=O)[C@H](CC(=O)O)NC1=O)NC(=O)[C@H](CC(C)(C)C)NC(=O)[C@H](CC(=O)O)NC2=O (stereo partly drawn) [I-2509, Ac-PL3-Asp-Npg-B6-Asp-3COOHF-Ala-Ala-Phe-Leu-PyrS1-2F3MeF-BztA-Gln-NH2] | 17 nM
CC(=O)N1CCC[C@]12CC=CCCCC1(CCCC=CCCCCCC[C@@](C)(C(=O)N[C@@H](Cc3ccsc3)C(=O)N[C@@H](Cc3csc4ccccc34)C(=O)N[C@H](CO)[C@@H](C)O)NC(=O)[C@H](CCO)NC(=O)[C@H](Cc3ccccc3)NC(=O)[C@H](C)NC(=O)[C@H](C)NC(=O)[C@H](CC(=O)O)NC(=O)[C@H](CC(=O)O)NC1=O)NC(=O)[C@H](CC(C)(C)C)NC(=O)[C@H](CC(=O)O)NC2=O (stereo partly drawn) [I-1390, Ac-PL3-Asp-Npg-B5-Asp-Asp-Ala-Ala-Phe-Hse-S8-3Thi-BztA-Thro1] | 16 nM
CC(=O)N1CCC[C@]12CC=CCCCC1(CCCC=CCCCOC(=O)N3CC[C@@](C(=O)N[C@@H](Cc4ccccc4)C(=O)N[C@@H](Cc4csc5ccccc45)C(=O)N[C@@H](CCCCN)C(N)=O)(C3)NC(=O)[C@H](CC(C)C)NC(=O)[C@H](Cc3ccccc3)NC(=O)[C@H](C)NC(=O)[C@H](CCCCNC(C)C)NC(=O)[C@H](CCC(N)=O)NC(=O)[C@H](CC(=O)O)NC1=O)NC(=O)[C@H](CC(C)(C)C)NC(=O)[C@H](CC(N)=O)NC2=O (stereo partly drawn) [I-1643, Ac-PL3-Asn-Npg-B5-Asp-Gln-iPrLys-Ala-Phe-Leu-PyrS2-Phe-BztA-Lys-NH2] | 822 nM
CC(=O)N1CCC[C@]12CC=CCCCC1(CCCC=CCCCOC(=O)N3CC[C@@](C(=O)N[C@@H](Cc4ccsc4)C(=O)N[C@@H](Cc4csc5ccccc45)C(=O)N[C@@H](Cc4ccccc4)C(N)=O)(C3)NC(=O)[C@H](CC(C)C)NC(=O)[C@H](Cc3ccccc3)NC(=O)[C@H](C)NC(=O)[C@H](C)NC(=O)[C@H](CN(CC(=O)O)CC(F)(F)F)NC(=O)[C@H](CC(=O)O)NC1=O)NC(=O)[C@H](CC(C)(C)C)NC(=O)[C@H](CC(=O)O)NC2=O (stereo partly drawn) [I-1749, Ac-PL3-Asp-Npg-B5-Asp-TfeGA-Ala-Ala-Phe-Leu-PyrS2-3Thi-BztA-Phe-NH2] | 145 nM
CC(=O)N1CCC[C@]12CC=CCCCC1(CCCC=CCCCOC(=O)N3CC[C@@](C(=O)N[C@@H](Cc4ccsc4)C(=O)N[C@@H](Cc4ccc(F)c(F)c4)C(=O)N[C@@H](CCC(N)=O)C(N)=O)(C3)NC(=O)[C@H](CC(C)C)NC(=O)[C@H](Cc3ccccc3)NC(=O)[C@H](C)NC(=O)[C@H](C)NC(=O)[C@H](CC(=O)O)NC(=O)[C@H](CC(=O)O)NC1=O)NC(=O)[C@H](CC(C)(C)C)NC(=O)[C@H](CC(=O)O)NC2=O (stereo partly drawn) [I-1427, Ac-PL3-Asp-Npg-B5-Asp-Asp-Ala-Ala-Phe-Leu-PyrS2-3Thi-34FF-Gln-NH2] | 33 nM
CC(=O)N1CCC[C@]12CCCCCCC1(CCCCCCCCOC(=O)N3CC[C@@](C(=O)N[C@@H](Cc4ccccc4Cl)C(=O)N[C@@H](Cc4csc5ccccc45)C(=O)N[C@@H](CCC(N)=O)C(N)=O)(C3)NC(=O)[C@H](CC(N)=O)NC(=O)[C@H](Cc3ccccc3)NC(=O)[C@H](C)NC(=O)[C@H](C)NC(=O)[C@H](CC(=O)O)NC(=O)[C@H](CC(=O)O)NC1=O)NC(=O)[C@H](CC(C)(C)C)NC(=O)[C@H](CC(=O)O)NC2=O (stereo partly drawn) [I-1464, Ac-PL3-Asp-Npg-B5-Asp-Asp-Ala-Ala-Phe-Asn-PyrS2-2C1F-BztA-Gln-NH2] | 168 nM
